The text below walks through data of patent US20240131022A1 (published 2024).

One data set addresses δ-receptor (Homo sapiens, UniProt P41143). In words: Functional profile in CHO transfected cells, δ-receptor inhibition. The format is cell-based.
The next data set concerns the target μ-receptor (Homo sapiens, UniProt P35372). Description: cell-based.
Data set [1] is described as follows: Stability in brain homogenate. As to conditions: within the time frame of the study.
The target of another data set is k-receptor (Homo sapiens, UniProt P41145). In words: cell-based. As to conditions: read-out: k-receptor activation (IC50 or %).
Sequence of k-receptor (P41145 whole entry): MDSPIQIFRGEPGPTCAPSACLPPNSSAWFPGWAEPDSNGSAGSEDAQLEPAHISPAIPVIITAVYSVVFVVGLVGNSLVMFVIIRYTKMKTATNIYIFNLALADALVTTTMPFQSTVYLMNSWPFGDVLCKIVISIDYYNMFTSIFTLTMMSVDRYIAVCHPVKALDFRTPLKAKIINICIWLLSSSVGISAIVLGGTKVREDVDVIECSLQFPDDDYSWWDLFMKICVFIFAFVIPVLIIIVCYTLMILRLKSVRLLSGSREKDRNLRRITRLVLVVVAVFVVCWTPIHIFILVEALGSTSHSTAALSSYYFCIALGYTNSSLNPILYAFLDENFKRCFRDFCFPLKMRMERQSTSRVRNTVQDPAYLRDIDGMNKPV

Sequence of δ-receptor (P41143 whole entry): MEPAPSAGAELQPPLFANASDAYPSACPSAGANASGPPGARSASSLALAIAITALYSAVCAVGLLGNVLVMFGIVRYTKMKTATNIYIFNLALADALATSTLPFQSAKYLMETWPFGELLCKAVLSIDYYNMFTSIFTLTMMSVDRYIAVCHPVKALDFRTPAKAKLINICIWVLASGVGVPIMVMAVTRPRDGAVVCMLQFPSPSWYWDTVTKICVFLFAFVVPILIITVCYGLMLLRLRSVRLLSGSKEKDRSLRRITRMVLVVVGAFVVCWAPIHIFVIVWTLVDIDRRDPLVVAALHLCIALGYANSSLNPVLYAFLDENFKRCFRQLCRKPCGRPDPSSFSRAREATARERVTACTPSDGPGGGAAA
Sequence of μ-receptor (P35372 whole entry): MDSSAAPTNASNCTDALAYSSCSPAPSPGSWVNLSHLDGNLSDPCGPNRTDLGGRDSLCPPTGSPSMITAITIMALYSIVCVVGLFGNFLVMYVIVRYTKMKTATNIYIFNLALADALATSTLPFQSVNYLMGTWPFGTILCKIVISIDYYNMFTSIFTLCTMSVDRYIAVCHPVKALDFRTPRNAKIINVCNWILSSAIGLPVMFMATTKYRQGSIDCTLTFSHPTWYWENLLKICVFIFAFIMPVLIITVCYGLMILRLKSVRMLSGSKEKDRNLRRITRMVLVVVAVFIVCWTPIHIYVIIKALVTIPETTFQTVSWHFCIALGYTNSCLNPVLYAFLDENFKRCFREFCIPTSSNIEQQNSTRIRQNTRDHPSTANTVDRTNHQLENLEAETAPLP

Regarding `C=CCN1CCC23c4c5ccc(OC(=O)/C=C/C=C/C)c4OC2C(=O)CCC3(O)C1C5` (stereo not shown) [NX90, 3-hexadienoate derivative of naloxone], the values for the IC50 on δ-receptor and against μ-receptor were more than 10 µM and 0.137 ± 0.012 µM, respectively. Further, the “intact in brain homogenate” value in data set [1] came out at 85±13%.
On δ-receptor, `C/C=C/C=C/C(=O)Oc1ccc2c3c1OC1C(O)CCC4(O)C(C2)N(CC2CCC2)CCC314` (stereo not shown) [NB33, 3-hexadienoate derivative of nalbuphine] returned an IC50 of more than 10 µM. On μ-receptor (read-out: μ-receptor inhibition (IC50 or %)), the inhibition at 1 µM amounted to 82.8%. Also, in data set [1], the “intact in brain homogenate” value is given as 65±6%. The activation at 1 µM at k-receptor turned out to be 22.3%.
